According to patent US20200268005A1, “PELLETED RUMINANT FEED ENRICHED WITH RUMEN-AVAILABLE INGREDIENTS” (BASF SE, priority 2014, published 2020):

Test: CLA analysis immediately after the processing step (pelleting / extrusion)
Type: physicochemical
Description: Preparation of the meal: Corn and extracted soybean meal were weighed in together, ground and mixed in a horizontal mixer. Lutalin or Lutrell were added and mixed in. The mixing time amounted to 15 minutes. These two mixtures were divided in each case. 80 kg were pelleted and 30 kg were extruded.
Pelleting press: Manufacturer Simon Heesen, horizontal die, 3.3×35 mm, nominal capacity 300 kg/hr. Extruder: Werner & Pfleiderer 37, die 2×0 3.9 mm, nominal capacity up to 50 kg/hr. Pelleting: Pelleting temperatures of 67-68.5° C. were reached. Extrusion: An extrusion temperature of 85° C. was reached, approximately 14% of water having been added. A residual moisture of 10 to 12% has been found in the end product.

## conjugated linoleic acid [CLA]
Extrusion temperature 85° C.
  activity loss on extrusion: approx. 40%
Pelleting 67-68.5° C., in words
  survival of the pelleting process: survived the pelleting process very well
